PubChem BioAssay (NCI)
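Interpolation was linear, between the two tested concentrations surrounding the appropriate level; five concentrations were tested over 48 hours in 96-well plates. GI50 = concentration required for 50% inhibition of growth. The concentration for full growth arrest is given as TGI.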

Experiments:
Assay in all cases: NCI-60 cell line screen, 48 h
KM12 colon = system: KM12 colon
NCI-H226 lung = system: NCI-H226 lung
LOX IMVI melanoma = system: LOX IMVI melanoma
HOP-62 NSCLC = system: HOP-62 NSCLC
BT-549 breast = system: BT-549 breast
EKVX NSCLC = system: EKVX NSCLC
UACC-257 melanoma = system: UACC-257 melanoma
UO-31 renal = system: UO-31 renal
TK-10 renal = system: TK-10 renal
A549 NSCLC = system: A549 NSCLC

SMILES	GI50 (KM12 colon)	TGI (KM12 colon)	GI50 (NCI-H226 lung)	TGI (NCI-H226 lung)	GI50 (LOX IMVI melanoma)	TGI (LOX IMVI melanoma)	GI50 (HOP-62 NSCLC)	TGI (HOP-62 NSCLC)	GI50 (BT-549 breast)	TGI (BT-549 breast)	GI50 (EKVX NSCLC)	TGI (EKVX NSCLC)	GI50 (UACC-257 melanoma)	TGI (UACC-257 melanoma)	GI50 (UO-31 renal)	TGI (UO-31 renal)	GI50 (TK-10 renal)	TGI (TK-10 renal)	GI50 (A549 NSCLC)	TGI (A549 NSCLC)
CO/N=C(\COc1ccc2c(=O)c3ccccc3oc2c1)c1ccccc1	41.4 µM	> 100 µM	40.8 µM	> 100 µM	35.9 µM	> 100 µM	26.8 µM	78.3 µM	26.8 µM	74.5 µM	20.9 µM	50.6 µM	39.1 µM	> 100 µM	24.2 µM	63 µM	18.6 µM	38.1 µM	35.2 µM	99.4 µM
c1ccc(-c2nn3c(c2-c2ccnc4cc(OCCN5CCOCC5)ccc24)CCC3)nc1	59.4 µM	> 100 µM	> 81.2 µM	> 100 µM	> 45.6 µM	> 100 µM	99.4 µM	> 100 µM	> 79.9 µM	> 100 µM	> 100 µM	> 100 µM	> 100 µM	> 100 µM	10.8 µM	> 100 µM	> 100 µM	> 100 µM	43.8 µM	> 100 µM
OCCCCC#Cc1ccccc1C#Cc1ccc(O)cc1	14.5 µM	30.9 µM	18.3 µM	39.1 µM	13.6 µM	27.7 µM	21.9 µM	38.1 µM	14.1 µM	28.8 µM	17 µM	37 µM	18.5 µM	33.9 µM	13.2 µM	26.7 µM	17.5 µM	31.7 µM	15.8 µM	30.8 µM
COc1cc(/C=C/c2ccc(C)cc2)cc(OC)c1OC		18.1 µM		11.4 µM		13.5 µM		16.3 µM		19 µM		> 100 µM		31.5 µM		23.6 µM		18 µM		70.1 µM
Cc1ccc(/C=C(\C#N)c2cc3ccccc3n2C)cc1	0.428 µM	> 100 µM	1.45 µM	> 100 µM	0.542 µM	> 100 µM	0.474 µM	> 100 µM	0.742 µM	> 26.7 µM	0.58 µM	> 100 µM	> 100 µM	> 100 µM	0.853 µM	> 100 µM	> 100 µM	> 100 µM	0.463 µM	> 100 µM
O=[N+]([O-])c1cccc(/C=N/NC2=CS(=O)(=O)C=C2)c1		> 100 µM		> 100 µM		> 100 µM		> 100 µM		> 100 µM		> 100 µM		> 100 µM		> 100 µM		> 100 µM		> 100 µM
Fc1ccc(-c2ncn(C3CCNCC3)c2-c2ccnc(Oc3ccc4c(c3)OCO4)n2)cc1	> 25 µM	> 25 µM	> 17 µM	> 25 µM	12.3 µM	> 25 µM	> 25 µM	> 25 µM	> 21.3 µM	> 25 µM	> 25 µM	> 25 µM	10.5 µM	> 25 µM	7.81 µM	> 25 µM	> 25 µM	> 25 µM	16.4 µM	> 25 µM
Nc1ccn(C2CC(F)C(CO)O2)c(=O)n1 (centres undefined)	> 100 µM	> 100 µM	> 100 µM	> 100 µM	> 100 µM	> 100 µM	> 100 µM	> 100 µM	> 100 µM	> 100 µM	> 100 µM	> 100 µM	> 100 µM	> 100 µM	> 100 µM	> 100 µM	> 100 µM	> 100 µM	> 100 µM	> 100 µM
COc1ccc2c(c1)nc(NNC(=O)c1cnccn1)c1cccn12	0.245 µM	9.64 µM	0.321 µM	2.72 µM	0.0837 µM	1.57 µM	0.0961 µM	3.33 µM	0.917 µM	3.62 µM	0.161 µM	3.7 µM	0.756 µM	4.42 µM	0.0848 µM	1.51 µM	0.157 µM	3.18 µM	0.298 µM	3.45 µM
COc1ccc(-c2c(C)c(C(=O)O)nc(-c3ccc4c(O)c(OC)c5c(c4n3)=NC(C)(C)N=5)c2N)c(O)c1OC		33.1 µM		63.1 µM		25.7 µM		44 µM		82.7 µM		> 100 µM		98.4 µM		27.5 µM		72.7 µM		55.5 µM
CN(C)Cc1ccc(-c2cc3onc(-c4ccccc4)c3c(=O)n2C)cc1		43.8 µM		> 100 µM		49.8 µM		41.3 µM		> 100 µM		> 100 µM		35.6 µM		26.6 µM		53.1 µM		36.9 µM
NC(=N\N=C/c1ccc(O)cc1)/C(N)=N\N=C/c1ccc(O)cc1	1.75 µM	> 100 µM	> 100 µM	> 100 µM	0.435 µM	> 100 µM	20.7 µM	67.1 µM	77.5 µM	> 100 µM	> 87.9 µM	> 100 µM	> 100 µM	> 100 µM	1.21 µM	> 100 µM	> 100 µM	> 100 µM	> 25.5 µM	> 100 µM
C=CC(=O)N1CCC(c2ccc(C(N)=O)c(-c3ccc(Oc4ccccc4)cc3)n2)CC1	39.6 µM	> 100 µM	20.3 µM	79.2 µM	26.3 µM	> 100 µM	56.2 µM	> 100 µM	22.7 µM	95.4 µM	21.5 µM	> 100 µM	27.9 µM	> 100 µM	12.9 µM	> 100 µM	19.2 µM	99.4 µM	28.9 µM	> 100 µM
CN(C)c1ccc(Nc2c3ccccc3nc3ccccc23)cc1	1.32 µM	4.54 µM	1.04 µM	2.68 µM	0.585 µM	2.26 µM	1.14 µM	2.59 µM	1.71 µM	8.19 µM	1.4 µM	6.35 µM	0.987 µM	2.65 µM	0.359 µM	1.87 µM	0.937 µM	4.19 µM	0.425 µM	1.9 µM
CCOc1ccc2c(-c3ccnc(Nc4cc(OC)cc(C(F)(F)F)c4)n3)cnn2n1	3.58 µM	> 25 µM	> 25 µM	> 25 µM	15.7 µM	> 25 µM	> 25 µM	> 25 µM	18.2 µM	> 25 µM	> 25 µM	> 25 µM	> 25 µM	> 25 µM	> 25 µM	> 25 µM	> 16.3 µM	> 25 µM	> 14.7 µM	> 25 µM
Cc1ccc2nc3ccccc3c(NCc3ccc(Cl)cc3)c2c1	6.5 µM	13.5 µM	6.77 µM	17 µM	2.07 µM	7.46 µM	6.89 µM	16.3 µM	6.38 µM	13.3 µM	6.45 µM	13 µM	8.57 µM	16.2 µM	1.53 µM	8.25 µM	8.94 µM	16.7 µM	3.93 µM	12.7 µM
O=C(NCCN1CCOCC1)OCc1nc2nc(Cl)nc(N3CCOCC3)c2[nH]1	1.96 µM	> 100 µM	3.14 µM	> 100 µM	0.382 µM	> 100 µM	4.93 µM	> 100 µM	3.48 µM	> 100 µM	> 100 µM	> 100 µM	> 100 µM	> 100 µM	4.25 µM	> 100 µM	> 100 µM	> 100 µM	9.33 µM	> 100 µM
COC(=O)c1c2c(c(C)[n+]([O-])c1C)C(=O)C=C(NCc1ccccc1)C2=O	0.7 µM	3.34 µM	1.78 µM	3.74 µM	0.34 µM	1.53 µM	1.49 µM	3.19 µM	1.45 µM	2.92 µM	1.14 µM	2.55 µM	0.261 µM	0.962 µM	1.35 µM	2.65 µM	2.92 µM	7.19 µM	1.1 µM	3.46 µM
C[C@H]1[C@H](C)N1CC(O)Cn1ccnc1[N+](=O)[O-] (some centres undefined)		> 100 µM		> 100 µM		> 100 µM		> 100 µM		> 100 µM		> 100 µM		> 100 µM		> 100 µM		> 100 µM		> 100 µM
O=C(CCN1CCCC1)Nc1ccc2c(NCc3ccccc3)c3ccccc3nc2c1	0.439 µM	1.85 µM	0.551 µM	2.91 µM	0.328 µM	1.31 µM	0.471 µM	2.51 µM	1.4 µM	3.04 µM	0.448 µM	2.34 µM	1.45 µM	3.3 µM	1.55 µM	4.05 µM	0.802 µM	3.5 µM	0.352 µM	1.68 µM
CN(C)C(=O)Nc1nc2cc(Cl)c(Cl)cc2[nH]1	0.404 µM	> 35.7 µM	2.83 µM	> 100 µM	1.87 µM	> 100 µM	3.84 µM	> 50.7 µM	2.79 µM	> 100 µM	5.3 µM	> 100 µM	> 100 µM	> 100 µM	5.53 µM	> 100 µM	4.71 µM	> 100 µM	0.704 µM	> 25.4 µM
O=S(=O)(NC1CCCCC1)c1ccc2c(c1)OCCOCCOCCOCCO2		> 100 µM		> 100 µM		> 100 µM		> 100 µM		> 100 µM		> 100 µM		> 100 µM		> 100 µM		> 100 µM		> 100 µM
O=C1CCc2c(sc3[nH]c(=S)n(-c4cc(C(F)(F)F)cc(C(F)(F)F)c4)c(=O)c23)C1	0.344 µM	1.36 µM	0.801 µM	7.04 µM	0.392 µM	5.62 µM	0.553 µM	11.8 µM	0.325 µM	1.99 µM	0.378 µM	5.14 µM	0.725 µM	4.6 µM	0.292 µM	1.11 µM	0.874 µM	> 44.1 µM	0.707 µM	11.3 µM
C/C(=C\c1ccn(-c2ccccc2N)n1)[C@@H]1C[C@@H]2O[C@]2(C)CCC[C@H](C)[C@H](O)[C@@H](C)C(=O)C(C)(C)[C@@H](O)CC(=O)O1	0.0203 µM	> 50 µM	7.14 µM	> 50 µM	0.0331 µM	> 50 µM	0.112 µM	> 50 µM	0.116 µM	> 13.1 µM	0.684 µM	> 50 µM		> 50 µM	0.302 µM	> 50 µM	0.143 µM	> 50 µM	0.0372 µM	> 50 µM
COc1ccc(/C=C(/c2ccccc2)[N+](=O)[O-])c(OC)c1	1.72 µM	3.31 µM	1.95 µM	4.49 µM	0.399 µM	1.63 µM	2.42 µM	4.77 µM	1.48 µM	2.89 µM	1.73 µM	3.98 µM	1.55 µM	3.38 µM	1.23 µM	2.47 µM	2.24 µM	4.18 µM	2.32 µM	6.66 µM
CNC(=O)NCC1OC(n2cnc3c(NC(=O)Nc4ccccc4)ncnc32)C(O[Si](C)(C)C(C)(C)C)C1O[Si](C)(C)C(C)(C)C (centres undefined)	2.13 µM	4.14 µM	3.1 µM	8.63 µM	1.82 µM	3.36 µM	4.98 µM	17.1 µM	2.94 µM	8.18 µM	3.7 µM	30.6 µM	3.78 µM	20.2 µM	2.5 µM	9.56 µM	4.29 µM	72.6 µM	2.9 µM	12.8 µM
O=S(=O)(O)O		2150 µM		2390 µM		542 µM		1070 µM		2680 µM		2470 µM		1990 µM		1770 µM		2160 µM		1870 µM
O=[N+]([O-])/C=C/c1c(Cl)cccc1Cl		5.28 µM		50.6 µM		3.16 µM		13 µM		4.96 µM		16.9 µM		10.2 µM		13.3 µM		8.25 µM		22.6 µM
